# Where a name gives a salt, the structure may show the parent alone. Where a SMILES comes first, the peptide text is derived from it. [ ]: non-standard residue; d: D form. The star is where a group is joined. X2 = CCC(C)(C)NCCN(CCNC(C)(C)/C(C)=N/O)CCN*; Tyr(3-I) = N[C@@H](Cc1ccc(O)c(I)c1)C(=O)O
# Experiment: in vitro
# Settings: PAMPA, PAMPA-BBB Pe
row,SMILES,Papp
1,C=C(C)[C@@H]1CCC2=CCC[C@@H](C)[C@]2(C)C1,18 ×10⁻⁶ cm/s
2,COc1ccc2[nH]c3c(c2c1)CCNC3C (centres unmarked) [ADRENOGLOMERULOTROPIN],23 ×10⁻⁶ cm/s
3,CCOC(=O)c1ccc(N)cc1 [BENZOCAINE],99 ×10⁻⁶ cm/s

# Same assay, conditions: PAMPA, PAMPA-BBB Pe(10^-6 cm/sec)
row,SMILES,Papp
1,CNc1ccccc1C(=O)O,1.5 ×10⁻⁶ cm/s
2,CO[C@@H]1[C@H](O)[C@@H](CO)O[C@H]1n1cnc2c(=O)[nH]c(N)nc21 [2'-O-METHYLGUANOSINE],< 1 ×10⁻⁶ cm/s
3,"COc1ccc(/C=C/C(=O)O)cc1OC [3,4-DIMETHOXYCINNAMIC ACID]",< 1 ×10⁻⁶ cm/s
4,Nc1c(O)cccc1C(=O)CC(N)C(=O)O (centres unmarked) [3-HYDROXYKYNURENINE],< 1 ×10⁻⁶ cm/s
5,CC(=O)O[C@@]12CO[C@@H]1C[C@H](O)[C@@]1(C)C(=O)[C@H](O)C3=C(C)[C@@H](O)C[C@@](O)([C@@H](OC(=O)c4ccccc4)[C@H]21)C3(C)C [10-DEACETYL BACCATIN III],< 1 ×10⁻⁶ cm/s
6,CC(C)C/C=C(\C=O)c1ccccc1 [(Z)-5-METHYL-2-PHENYL-HEX-2-ENAL],< 1 ×10⁻⁶ cm/s
7,CC1=C(C)C(=O)C(CC[C@](C)(O)CCC[C@H](C)CCC[C@H](C)CCCC(C)C)=C(C)C1=O [.ALPHA.-TOCOPHERYLQUINONE],7.2 ×10⁻⁶ cm/s

# Same assay, conditions: PAMPA, PAMPA-BBB Pe(10^-6 cm/sec), Table S3: compounds exhibiting low PAMPA-BBB permeability
row,SMILES,Papp
1,CN(CCCC(=O)c1cccnc1)N=O,< 1 ×10⁻⁶ cm/s
2,CC1NC(C(=O)O)Cc2c1[nH]c1ccccc21 (centres unmarked),< 1 ×10⁻⁶ cm/s
3,CCNc1nc(N)nc(Cl)n1,1.1 ×10⁻⁶ cm/s
4,CC1CC(C)C(=O)C1=O (centres unmarked),2.7 ×10⁻⁶ cm/s
5,NC1C=CC=C(C(=O)O)C1 (centres unmarked),< 1 ×10⁻⁶ cm/s
6,O=C/C=C/c1ccccc1,< 1 ×10⁻⁶ cm/s
7,C=C/C(C)=C/C/C=C(\C)CCC=C(C)C,< 1 ×10⁻⁶ cm/s
8,"NC(Cc1cc(O)c(O)cc1O)C(=O)O (racemic) [2,4,5-TRIHYDROXY-DL-PHENYLALANINE]",9.3 ×10⁻⁶ cm/s
9,"O=C(OC[C@H]1O[C@@H](OC(=O)c2cc(O)c(O)c(O)c2)[C@H](OC(=O)c2cc(O)c(O)c(O)c2)[C@@H](OC(=O)c2cc(O)c(O)c(O)c2)[C@@H]1O)c1cc(O)c(O)c(O)c1 [1,2,3,6-TETRA-O-GALLOYL-.BETA.-D-GLUCOSE]",< 1 ×10⁻⁶ cm/s
10,"COC1=C(OC)C(=O)c2ccccc2C1=O [2,3-DIMETHOXYNAPHTHOQUINONE]",4.7 ×10⁻⁶ cm/s
11,"COC1=CC(=O)C=C(OC)C1=O [2,6-DIMETHOXY-1,4-BENZOQUINONE]",< 1 ×10⁻⁶ cm/s
12,Nc1nc(Cl)nc2c1ncn2[C@@H]1O[C@H](CO)C(O)[C@H]1O (some centres unmarked) [2-CHLOROADENOSINE],< 1 ×10⁻⁶ cm/s
13,O=C(O)c1ccco1 [2-FURANOIC ACID],< 1 ×10⁻⁶ cm/s
14,Nc1ccn([C@@H]2O[C@H](CO)[C@@H](OP(=O)(O)O)[C@H]2O)c(=O)n1 [3'-CMP],< 1 ×10⁻⁶ cm/s
15,"COc1ccc(C(=O)O)cc1OC [3,4-DIMETHOXYBENZOIC ACID]",< 1 ×10⁻⁶ cm/s
16,"O=C(O)/C=C/c1ccc2c(c1)OCO2 [3,4-METHYLENEDIOXYCINNAMIC ACID]",< 1 ×10⁻⁶ cm/s
17,Cn1cnc(N)c2ncnc1-2 [3-METHYL-6-AMINOPURINE],< 1 ×10⁻⁶ cm/s
18,COc1ccc(O[C@@H]2O[C@H](CO)[C@H](O)[C@H](O)[C@H]2O)cc1 [4-METHOXYPHENYL .BETA.-D-GLUCOSIDE],1.3 ×10⁻⁶ cm/s
19,COc1ccc2[nH]cc(CC(=O)O)c2c1 [5-METHOXYIN[…]],< 1 ×10⁻⁶ cm/s
20,COc1cc2c(CCNC(C)=O)c[nH]c2cc1O [6-HYDROXYMELATONIN],2.8 ×10⁻⁶ cm/s
21,CC(=O)OCC1=C(C(=O)O)N2C(=O)C(N)C2SC1 (centres unmarked) [7-Aminocephalosporanic acid],< 1 ×10⁻⁶ cm/s

row,SMILES,Papp
1,CN(Cc1nc2c(N)nc(N)nc2nc1O)c1ccc(C(=O)N[C@@H](CCC(=O)O)C(=O)O)cc1 [7-HYDROXYMETHOTREXATE],< 1 ×10⁻⁶ cm/s
2,CC1(C)CCC2=C(O1)c1ccccc1C(=O)C2=O [.BETA.-LAPACHONE],< 1 ×10⁻⁶ cm/s
3,NC(=O)c1ncn([C@@H]2O[C@H](CO)[C@@H](O)[C@H]2O)c1N [ACADESINE],< 1 ×10⁻⁶ cm/s
4,Nc1ncnc2c1ncn2[C@@H]1O[C@H](CO)[C@@H](O)[C@H]1O [ADENOSINE],< 1 ×10⁻⁶ cm/s
5,O=C(OCC1=C[C@@H](O)[C@@H]2C=CO[C@@H](O[C@@H]3O[C@H](CO)[C@@H](O)[C@H](O)[C@H]3O)[C@H]12)c1ccc(O)cc1 [AGNUSIDE],< 1 ×10⁻⁶ cm/s
6,O=C1c2c(O)cccc2[C@H]([C@@H]2O[C@H](CO)[C@@H](O)[C@H](O)[C@H]2O)c2cc(CO)cc(O)c21 [ALOIN A],5.4 ×10⁻⁶ cm/s
7,c1cncc([C@@H]2CCCCN2)c1 [ANABASINE],3.4 ×10⁻⁶ cm/s
8,O=c1cc(-c2ccc(O)cc2)oc2cc(O[C@@H]3O[C@H](CO)[C@@H](O)[C@H](O)[C@H]3O[C@@H]3OC[C@](O)(CO)[C@H]3O)cc(O)c12 [APIIN],2 ×10⁻⁶ cm/s
9,CC1=C(/C=C/C(C)=C/C=C/C(C)=C/C=C/C=C(C)/C=C/C=C(\C)C=O)C(C)(C)CCC1 [APOCAROTENAL],< 1 ×10⁻⁶ cm/s
10,Nc1nc2c(ncn2[C@@H]2O[C@H](CO)[C@@H](O)[C@@H]2O)c(=O)[nH]1 [ARAGUANOSINE],< 1 ×10⁻⁶ cm/s
11,OC[C@H]1O[C@@H](Oc2ccc(O)cc2)[C@H](O)[C@@H](O)[C@@H]1O [ARBUTIN],< 1 ×10⁻⁶ cm/s
12,COc1cccc2c1cc([N+](=O)[O-])c1c(C(=O)O)cc3c(c12)OCO3 [ARISTOLOCHIC ACID],< 1 ×10⁻⁶ cm/s
13,Nc1ncn([C@@H]2O[C@H](CO)[C@@H](O)[C@H]2O)c(=O)n1 [AZACITIDINE],< 1 ×10⁻⁶ cm/s
14,O=[N+]([O-])c1ncc[nH]1 [AZOMYCIN],< 1 ×10⁻⁶ cm/s
15,CC(=O)O[C@H]1C(=O)[C@@]2(C)[C@H]([C@H](OC(=O)c3ccccc3)[C@]3(O)C[C@H](O)C(C)=C1C3(C)C)[C@]1(OC(C)=O)CO[C@@H]1C[C@@H]2O [BACCATIN III],< 1 ×10⁻⁶ cm/s
16,O=C(O)[C@H]1O[C@@H](Oc2cc3oc(-c4ccccc4)cc(=O)c3c(O)c2O)[C@H](O)[C@@H](O)[C@@H]1O [BAICALIN],1.3 ×10⁻⁶ cm/s
17,COc1ccc2cc3[n+](cc2c1OC)CCc1cc2c(cc1-3)OCO2 [BERBERINE HYDROCHLORIDE],< 1 ×10⁻⁶ cm/s
18,CC(C)=CCC/C(C)=C/COc1c2ccoc2cc2oc(=O)ccc12 [BERGAMOTTIN],5.8 ×10⁻⁶ cm/s
19,COc1c(O)cc2c(c1O)[C@@H]1O[C@H](CO)[C@@H](O)[C@H](O)[C@H]1OC2=O [BERGENIN],< 1 ×10⁻⁶ cm/s
20,CC1=C(/C=C/C(C)=C/C=C/C(C)=C/C=C/C=C(C)/C=C/C=C(C)/C=C/C2=C(C)CCCC2(C)C)C(C)(C)CCC1 [BETA CAROTENE],9.2 ×10⁻⁶ cm/s

# Same assay, conditions: PAMPA, PAMPA-BBB Pe, Table S2: compounds exhibiting moderate to high PAMPA-BBB permeability
row,SMILES,Papp
1,O=C(/C=C/c1ccccc1)c1ccc(O)cc1O,223 ×10⁻⁶ cm/s
2,CCCOc1ccc2[nH]cc(C3=CCNCC3)c2n1,18 ×10⁻⁶ cm/s
3,O=c1cc(N2CCOCC2)oc2c(-c3cccc4c3sc3ccccc34)cccc12,102 ×10⁻⁶ cm/s
4,COc1ccc(-c2oc3cc(OC)c(OC)c(OC)c3c(=O)c2OC)cc1OC,120 ×10⁻⁶ cm/s
5,COc1cccc(C=O)c1OC,107 ×10⁻⁶ cm/s
6,CCC(C)(C)NCCN(CCNC(=O)CNC(=O)[C@H](CCCCN)NC(=O)[C@H](CC(C)C)NC(=O)[C@H](CC(C)C)NC(=O)[C@@H](NC(=O)[C@H](Cc1ccc(O)c(I)c1)NC(=O)[C@@H]1CCCN1C(=O)[C@H](CO)NC(=O)[C@@H](NC(=O)[C@H](CCC(N)=O)NC(=O)[C@H](CCC(=O)O)NC(=O)[C@H](CCC(N)=O)NC(=O)[C@H](CC(N)=O)NC(C)=O)C(C)C)[C@@H](C)O)CCNC(C)(C)/C(C)=N/O (Ac-NQEQVSP[Tyr(3-I)]TLLKG-X2),155 ×10⁻⁶ cm/s
7,CC(=O)/C=C/C1C(C)=CCC(C)C1(C)C (mixture of isomers) [DL-TRANS-.ALPHA.-IRONE],34 ×10⁻⁶ cm/s
8,"S=c1ccss1 [1,2-DITHIOLE-3-THIONE]",98 ×10⁻⁶ cm/s
9,COc1ccccc1/C=C/C=O [2'-METHOXYCINNAMALDEHYDE],122 ×10⁻⁶ cm/s
10,"COc1cccc(OC)c1C(=O)O [2,6-DIMETHOXYBENZOIC ACID]",24 ×10⁻⁶ cm/s
11,CC(=O)c1c(O)cccc1O [2-ACETYLRESORCINOL],45 ×10⁻⁶ cm/s
12,O=Cc1cc2ccccc2o1 [2-FORMYLBENZOFURAN],154 ×10⁻⁶ cm/s
13,"CNC(=O)Nc1ccc(Cl)c(Cl)c1 [3,4-DCPMU]",115 ×10⁻⁶ cm/s
14,COc1cc(C)cc(O)c1 [3-HYDROXY-5-METHOXYTOLUENE],50 ×10⁻⁶ cm/s
15,CCCCc1ccc(O)cc1 [4-BUTYLPHENOL],116 ×10⁻⁶ cm/s
16,CCc1ccc(O)c(OC)c1 [4-ETHYLGUAIACOL],116 ×10⁻⁶ cm/s

row,SMILES,Papp
1,COc1ccc2[nH]c3c(c2c1)CCN=C3C [6-METHOXYHARMALANE],49 ×10⁻⁶ cm/s
2,CCCCCc1cccc(=O)o1 [6-PENTYL-2H-PYRAN-2-ONE],52 ×10⁻⁶ cm/s
3,COc1ccc2ccc(=O)oc2c1 [7-METHOXYCOUMARIN],77 ×10⁻⁶ cm/s
4,"C=C1CC[C@H](O)C/C1=C/C=C1\CCC[C@]2(C)[C@@H]([C@H](C)CCC(O)C(C)(C)O)CC[C@@H]12 (some centres unmarked) [24,25-DIHYDROXYVITAMIN D3]",78 ×10⁻⁶ cm/s
5,COc1cc(C2c3cc4c(c(O)c3CC3COC(=O)C32)OCO4)cc(OC)c1O (stereo not drawn) [.ALPHA.-PELTATIN A],14 ×10⁻⁶ cm/s
6,Cc1ccc2c(c1)C(=O)c1ccccc1C2=O [.BETA.-METHYLANTHRAQUINONE],26 ×10⁻⁶ cm/s
7,CC[C@H](C)[C@H]1O[C@]2(C=C[C@@H]1C)C[C@@H]1C[C@@H](C/C=C(\C)[C@@H](O[C@H]3C[C@H](OC)[C@@H](O[C@H]4C[C@H](OC)[C@@H](O)[C@H](C)O4)[C@H](C)O3)[C@@H](C)/C=C/C=C3\CO[C@@H]4[C@H](O)C(C)=C[C@@H](C(=O)O1)[C@]34O)O2 [ABAMECTIN B1A],35 ×10⁻⁶ cm/s
8,C[C@]12CCC(=O)C=C1CC[C@@H]1[C@@H]2C(=O)C[C@]2(C)C(=O)CC[C@@H]12 [ADRENOSTERONE],41 ×10⁻⁶ cm/s
9,CC[C@@]1(O)C[C@H](O[C@H]2C[C@H](N(C)C)[C@H](O)[C@H](C)O2)c2c(cc3c(c2O)C(=O)c2c(O)cccc2C3=O)[C@H]1C(=O)OC [AKLAVINE],116 ×10⁻⁶ cm/s
10,Cc1ccnc(N)c1 [AMINOPICOLINE],13 ×10⁻⁶ cm/s
11,CN1CCCCC1c1ccc(-c2cccnc2)nc1 (centres unmarked) [ANABASAMINE],31 ×10⁻⁶ cm/s
12,C/C=C/c1ccc(OC)cc1 [ANETHOLE],120 ×10⁻⁶ cm/s
13,O=C1c2c(O)cc(O)cc2O[C@@H](c2ccc(O)cc2)[C@@H]1O [AROMADENDRINE],58 ×10⁻⁶ cm/s
14,O=C(/C=C/c1ccccc1)OCc1ccccc1 [BENZYL CINNAMATE],> 424 ×10⁻⁶ cm/s
15,C/C(=C\COc1c2ccoc2cc2oc(=O)ccc12)CCC(O)C(C)(C)O (centres unmarked) [BERGAMOTTIN DIHYDROXYBERGAMOTTIN],55 ×10⁻⁶ cm/s
16,O=C1NC(=O)C(c2c[nH]c3ccccc23)=C1c1c[nH]c2ccccc12 [BISINDOLYLMALEIMIDE],> 654 ×10⁻⁶ cm/s

# Source: article PMC11876671, “Investigating blood–brain barrier penetration and neurotoxicity of natural products for central nervous system drug development” (Scientific Reports, 2025)
